From patent US9714951B2, “Pharmaceutical compositions containing peptides derived from human BPLP protein” (INSTITUT PASTEUR, priority 2004, dated 2017)
“Also recorded” adds a separate entry of the source. Ends that are not written are not given here.

How the values were obtained:
formalin-induced pain [1] = conditions: iv; cited from earlier work
formalin-induced pain [2] = test: formalin test, behavioral rat model of acute pain; type: in vivo; conditions: for time spent in paw licking, early phase: first 20 min after formalin, vehicle 144±17 s
Source text: […]. […] […].

[3] = biological target: T1, human NEP (human ecto-endopeptidase activity, LNCaP cell line) (Homo sapiens, UniProt P08473); test: breakdown of substrate (substance P, McaBK2) by LNCaP human cell membranes; type: biochemical; conditions: for effect on substance P hydrolysis by cell surface ectopeptidases: bestatin 25 μM, captopril 10 μM
T1 construct: in the experimental model of static incubation of human LNCaP cell membranes; endogenous in cells; host or cells: LNCaP (human prostate adenocarcinoma) membrane preparation, NEP induced by DHT

[4] = biological target: T2, rat NEP ecto-endopeptidase activity (renal tissue) (Rattus norvegicus, UniProt P07861); test: breakdown of substance P by rat renal NEP ecto-endopeptidase activity; type: biochemical
T2 construct: rat NEP ecto-endopeptidase activity (renal tissue); from tissue; host or cells: rat kidney (renal tissue)
T2 sequence (P07861 1-750): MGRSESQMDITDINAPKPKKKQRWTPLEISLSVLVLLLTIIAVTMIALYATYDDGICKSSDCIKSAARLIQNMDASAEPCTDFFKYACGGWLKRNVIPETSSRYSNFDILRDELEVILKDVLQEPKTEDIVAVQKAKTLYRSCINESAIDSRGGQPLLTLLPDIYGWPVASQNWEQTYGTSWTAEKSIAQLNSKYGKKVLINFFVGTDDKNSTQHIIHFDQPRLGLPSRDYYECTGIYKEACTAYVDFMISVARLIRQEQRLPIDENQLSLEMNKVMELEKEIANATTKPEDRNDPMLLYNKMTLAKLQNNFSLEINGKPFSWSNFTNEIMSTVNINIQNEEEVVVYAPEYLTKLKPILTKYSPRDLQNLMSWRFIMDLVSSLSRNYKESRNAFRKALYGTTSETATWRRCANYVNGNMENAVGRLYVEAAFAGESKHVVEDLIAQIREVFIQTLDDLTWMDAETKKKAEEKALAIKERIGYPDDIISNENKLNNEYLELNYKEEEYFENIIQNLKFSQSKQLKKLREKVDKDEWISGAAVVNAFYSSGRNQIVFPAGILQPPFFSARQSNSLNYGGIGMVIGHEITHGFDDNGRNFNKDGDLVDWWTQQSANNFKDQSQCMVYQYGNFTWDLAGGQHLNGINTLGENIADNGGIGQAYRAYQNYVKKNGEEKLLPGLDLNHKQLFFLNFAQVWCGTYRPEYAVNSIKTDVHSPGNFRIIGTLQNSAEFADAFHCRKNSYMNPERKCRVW
Protocol: Briefly, for membrane preparations, the cells were homogenised at 4° C. in 10 volumes (vol./wt.) of 50 mM Tris/HCl buffered at pH 7.1. A first centrifugation at 1000×g and 5° C. for 5 min allows to remove the cellular debris and the nuclei in the pellet. A second centrifugation at 100 000×g and 5° C. for 30 min concentrates the membrane fraction in the pellet, which will be superficially washed three times in cold Tris/HCl buffer, resuspended in fresh buffer, aliquoted and stored at −80° C. while waiting to be used as enzyme source.
Hydrolysis of substrates was measured by monitoring the metabolism rate in conditions of initial velocity measurement in the presence and absence of specific inhibitors. These were added to the preincubation medium. The standard reaction mixture consisted of cell membranes in a final volume of 200 μl Tris-HCl 50 mM pH 6.5-7.2. The substrate was added after preincubation for 10 min and the digestion carried out for 20 min at 25° C. in a constantly shaken water bath. The reaction was terminated by cooling to 4° C. and adding HCl (0.3N final concentration). The reaction tubes were then centrifuged (4700×g for 15 min at 4° C.) and the remaining intact substrate and its metabolites measured.
The intact tritiated substrate was eluted with 75-100% methanol-0.1% TFA (4 ml). • RP-HPLC coupled to a spectrophotometer was used to analyse the hydrolysis of Met-enkephalin, (C-18 LUNA column, AIT). […] Their identities and relative quantities (peak height) were checked by monitoring the column outflow at 264 nm (L3000, Merck). • The disappearance of the initial Met-enkephalin substrate was also quantified by radioimmunoassay (RIA). […] The radioactivity of each fraction was determined by liquid scintillation spectrometry.

[5] = test system: human cell surface endopeptidases; test: metabolism of YQRFSR by human cell membranes containing NEP (RP-HPLC); type: in vitro ADME; conditions: 175 μM
Source text: FIG. 8 is a RP-HPLC chromatographic analysis of the YQRFSR peptide (SEQ ID NO: 4).
The inventors used the tritiated 3H-YQRFSR peptide (SEQ ID NO: 4) to establish the pharmacokinetic and pharmacodynamic parameters, of this human functional peptidomimetic of rat sialorphin in vivo in adult male rat (biodistribution-bioavailability-clearance) as well as to define its metabolism mechanism and turnover in vivo and in vitro, (FIG. 8).

[6] = biological target: T3, soluble purified renal NEP (Oryctolagus cuniculus, UniProt P08049); conditions: DGNPA substrate, read-out: IC50 of inhibition of NEP activity; cited from earlier work
T3 construct: host or cells: kidney (purified, soluble)
T3 sequence (P08049 1-750): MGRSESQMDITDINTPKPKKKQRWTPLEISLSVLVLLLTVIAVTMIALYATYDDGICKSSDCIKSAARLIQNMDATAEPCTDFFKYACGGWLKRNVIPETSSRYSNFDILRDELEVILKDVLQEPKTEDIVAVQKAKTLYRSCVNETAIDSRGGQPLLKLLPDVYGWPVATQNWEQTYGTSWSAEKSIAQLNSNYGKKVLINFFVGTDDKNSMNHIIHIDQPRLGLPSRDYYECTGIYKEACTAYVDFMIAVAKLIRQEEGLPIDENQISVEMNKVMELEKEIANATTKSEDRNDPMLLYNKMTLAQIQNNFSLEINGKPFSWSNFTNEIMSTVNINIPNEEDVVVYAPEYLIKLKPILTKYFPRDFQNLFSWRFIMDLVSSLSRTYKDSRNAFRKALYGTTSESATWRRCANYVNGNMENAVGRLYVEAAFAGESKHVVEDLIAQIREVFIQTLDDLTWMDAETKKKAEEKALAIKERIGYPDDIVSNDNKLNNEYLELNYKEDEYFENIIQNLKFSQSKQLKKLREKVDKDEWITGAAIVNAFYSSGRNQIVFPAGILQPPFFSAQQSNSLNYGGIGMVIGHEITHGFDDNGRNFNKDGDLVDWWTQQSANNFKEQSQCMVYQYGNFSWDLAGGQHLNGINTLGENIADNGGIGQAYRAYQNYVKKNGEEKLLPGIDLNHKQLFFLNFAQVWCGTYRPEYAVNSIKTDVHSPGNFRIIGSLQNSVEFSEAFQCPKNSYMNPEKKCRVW

spinal and renal NEP = biological target: T4, spinal and renal NEP (Rattus norvegicus, UniProt P07861); conditions: membrane-bound NEP; read-out: IC50 of inhibition of the breakdown of substance P; cited from earlier work
T4 construct: host or cells: spinal cord and kidney tissue
T4 sequence (P07861 1-750): T2 sequence (P07861 1-750)

[7] = biological target: T5, soluble recombinant human DPP IV (Homo sapiens, UniProt P27487); test: endoproteolysis of substance P by soluble recombinant hDPPIV; type: biochemical; conditions: 25 or 50 μM peptide
T5 construct: (without the N-terminal cytosol and transmembrane segment)
T5 sequence (P27487 29-766 limits assumed): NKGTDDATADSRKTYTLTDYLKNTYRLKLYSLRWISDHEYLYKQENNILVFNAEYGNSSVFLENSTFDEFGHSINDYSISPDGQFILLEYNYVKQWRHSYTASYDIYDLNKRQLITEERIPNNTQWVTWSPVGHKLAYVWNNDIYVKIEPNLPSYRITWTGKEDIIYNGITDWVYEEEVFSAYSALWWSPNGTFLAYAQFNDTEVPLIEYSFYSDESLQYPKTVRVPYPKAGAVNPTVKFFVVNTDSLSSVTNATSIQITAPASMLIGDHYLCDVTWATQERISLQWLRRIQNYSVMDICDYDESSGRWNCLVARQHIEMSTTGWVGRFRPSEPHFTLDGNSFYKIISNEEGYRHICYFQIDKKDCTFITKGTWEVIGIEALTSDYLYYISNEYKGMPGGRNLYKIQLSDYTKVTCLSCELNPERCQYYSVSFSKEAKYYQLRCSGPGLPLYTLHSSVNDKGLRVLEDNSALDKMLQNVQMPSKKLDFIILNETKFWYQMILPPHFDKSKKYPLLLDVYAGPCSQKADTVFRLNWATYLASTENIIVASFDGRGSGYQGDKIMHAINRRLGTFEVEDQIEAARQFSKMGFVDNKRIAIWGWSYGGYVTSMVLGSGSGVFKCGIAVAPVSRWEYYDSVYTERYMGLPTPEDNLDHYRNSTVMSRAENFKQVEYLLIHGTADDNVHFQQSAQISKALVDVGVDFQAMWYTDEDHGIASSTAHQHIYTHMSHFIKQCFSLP

T1 sequence (P08473 whole entry): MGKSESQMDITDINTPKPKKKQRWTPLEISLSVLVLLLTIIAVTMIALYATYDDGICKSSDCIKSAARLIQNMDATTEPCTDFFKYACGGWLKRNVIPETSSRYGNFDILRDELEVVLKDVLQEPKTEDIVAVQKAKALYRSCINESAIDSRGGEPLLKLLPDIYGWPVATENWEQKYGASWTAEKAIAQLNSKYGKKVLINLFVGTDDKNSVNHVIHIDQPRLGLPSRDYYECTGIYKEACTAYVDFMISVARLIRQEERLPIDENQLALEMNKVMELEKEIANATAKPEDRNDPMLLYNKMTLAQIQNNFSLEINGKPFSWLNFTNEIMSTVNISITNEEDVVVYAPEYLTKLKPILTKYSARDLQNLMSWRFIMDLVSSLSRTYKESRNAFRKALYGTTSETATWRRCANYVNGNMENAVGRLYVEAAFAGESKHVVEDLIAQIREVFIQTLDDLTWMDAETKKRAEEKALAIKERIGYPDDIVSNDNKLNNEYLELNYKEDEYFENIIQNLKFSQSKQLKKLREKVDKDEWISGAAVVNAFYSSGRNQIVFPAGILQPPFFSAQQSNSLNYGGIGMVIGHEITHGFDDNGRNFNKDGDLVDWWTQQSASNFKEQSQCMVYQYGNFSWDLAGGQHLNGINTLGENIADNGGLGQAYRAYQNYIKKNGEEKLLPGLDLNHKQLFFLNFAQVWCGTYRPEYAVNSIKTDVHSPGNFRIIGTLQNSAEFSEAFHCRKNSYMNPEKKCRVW

For CSCC[C@H](N)CSSCC(Cc1ccccc1)C(=O)N[C@@H](Cc1ccccc1)C(=O)OCc1ccccc1 (stereo partly shown) [RB101], the “effective doses in formalin-induced pain model” value (formalin-induced pain [1]) is listed as 2.5 to 5 mg/kg.

For N=C(N)NCCC[C@H](NC(=O)[C@H](CO)NC(=O)[C@H](Cc1ccccc1)NC(=O)[C@H](CCCNC(=N)N)NC(=O)[C@H](CCC(N)=O)NC(=O)[C@@H](N)Cc1ccc(O)cc1)C(=O)O [YQRFSR], the “time spent in paw licking, early phase” value (formalin-induced pain [2]; 0.5 mg/kg systemic) was 97 ± 14 s, the “time spent in paw licking, early phase” value (formalin-induced pain [2]; 1 mg/kg systemic) was 84 ± 13 s and the “time spent in paw licking, late phase” value (formalin-induced pain [2]; 1 mg/kg, 40 to 60 min after formalin, vehicle 63±13 s) was 9 ± 3 s. For the same molecule, the “analgesia in the presence of an opioid receptor antagonist” value (formalin-induced pain [2]; with nalaxone) was “totally reversed”, the “inhibitory potency towards ectoendopeptidase from human cells” value [3] was 5 to 50 µM and the “inhibition of substance P endoproteolysis by human cell membranes” value ([3]; peptide 175 μM) was 70%. For the same molecule, the IC50 [4] was 38 µM, the “inhibitory potency towards ectoendopeptidase from rat tissues” value [4] was 5 to 75 µM and the “metabolism by human cell membranes containing NEP” value ([5]; in vitro) was “not metabolized”. The “recovered as intact peptide” value ([5]; with human cell membranes containing NEP, 94% in absence of membranes) was 93%.

For CC(C)C[C@H](NC(=O)[C@@H](O)[C@H](N)Cc1ccccc1)C(=O)O [bestatin], the “effect on substance P hydrolysis by cell surface ectopeptidases” value [3] was “did not inhibit”.

With C[C@H](CS)C(=O)N1CCC[C@H]1C(=O)O [captopril] the “effect on substance P hydrolysis by cell surface ectopeptidases” value [3] was “did not inhibit”.

Molecule O=C(O)CNC(=O)C(CS)Cc1ccccc1 (stereo not shown) [thiorphan] has an inhibition at 0.5 µM ([3]; read-out: maximum inhibitory potency on LNCaP membrane activity) of 62%.

With QHNP (listed as Rattus rattus) the “inhibitory potency towards ectoendopeptidase from rat tissues” value [4] was “≧50 μM”.

In the case of QHNPR, the “inhibitory potency against membrane-anchored human NEP (LNCaP) relative to rodent NEP (rat, rabbit), fold lower” value ([3]; human LNCaP vs rodent NEP) is reported as “about 10 fold”, the “inhibitory potency towards ectoendopeptidase from human cells” value [3] is reported as 4 to 40 µM and the “inhibitory potency towards ectoendopeptidase from rat tissues” value [4] is reported as 0.4 to 4 µM. For the same molecule, the “effective doses in formalin-induced pain model” value (formalin-induced pain [1]) was 0.1 to 0.2 mg/kg, the IC50 [6] was 0.6 µM and the IC50 (spinal and renal NEP) was 0.4 to 1 µM.

With QRFSR [QRFSR] the “effect on breakdown of SP by recombinant hDPPIV” value [7] was “no effect; also recorded: not prevented”.

In the case of QRGPR (listed as Homo sapiens), the “effect on substance P endoproteolysis induced by LNCaP human cell membranes” value ([3]; 20-90 μM) is reported as “no effect” and the “inhibitory potency towards ectoendopeptidase from human cells” value [3] is reported as “≧90 μM”.

In the case of QRGPRGP (listed as Homo sapiens), the “inhibitory potency towards ectoendopeptidase from human cells” value [3] is reported as “≧90 μM”.
